Reference: PubChem BioAssay AID179 (DTP/NCI, 2004)
Active and inactive are the calls of the source.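 The calls were made as follows: active = compounds giving half or more protection of infected cells from virus-caused growth loss, again on retest; inactive = the rest.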 Where a SMILES comes first, the peptide text is derived from it.

Test system: CEM cells HIV-1 protection, formazan growth assay
Assay: NCI AIDS Antiviral Assay
Settings: for IC50: measured here: growth of uninfected CEM cells
Method in brief: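 Category rules: moderately active means at least 50% protection on retest, and confirmed active means 100% protection reproducibly. The underlying data came from a formazan growth assay in HIV-1-infected CEM cells.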

| Structure (SMILES) | EC50 [µM] | IC50 [µM] | outcome |
| --- | --- | --- | --- |
| CCCc1cc(=O)oc2c3c(c4c(c12)OC(C)(C)C=C4)O[C@H](C)[C@@H](C)[C@@H]3OC(C)=O | 1.7 | 26.9 | – |
| CC(=O)NCc1nc(C#N)c(N)o1 | > 200 | > 200 | – |
| CCOC(=O)c1nc2ccc([N+](=O)[O-])cc2c2c1CCO2 | > 63.1 | > 63.1 | – |
| Cc1cc2c(CC(=O)O)[nH]nc2c(C(=O)O)c1C | > 1000 | > 1000 | – |
| Nc1nc(Cl)c2ncn(C3C=CC(O)CC3)c2n1 (configuration not stated) | > 933 | 52.5 | – |
| NC(=O)CN1CC(C2=C(O)CN(CC(N)=O)C2=O)=CC1=O | – | – | inactive |
| N=C(N)Cn1cnc2ccccc21 | > 5500 | 4680 | – |
| CC1(C)C2=CCCC(=O)[C@@]2(C)CC[C@@H]1O | – | – | inactive |
| CCC(C)C(NC(=O)C(CCC(N)=O)NC(=O)CN)C(=O)NC(Cc1ccccc1)C(=O)NC(CO)C(=O)NC(CCCN=C(N)N)C(N)=O (configuration not stated) (H-GQIFSR-NH2; configuration not given here) | – | – | inactive |
| CCOC(=O)/C(=C/c1ccccc1)C(=O)c1ccccc1 | > 25.7 | 20 | – |
| COc1ccc(/C(=N/Nc2ccccc2)C(c2ccc(OC)cc2)C2OC(=O)c3ccccc32)cc1 (configuration not stated) | > 28.2 | > 28.2 | – |
| CCC12CCCN(Cc3ccccc3)C1c1c(n(C)c3ccccc13)C(CO)C2 (configuration not stated) | > 25.7 | > 25.7 | – |
| NC1CSc2ccccc2NC1=O (configuration not stated) | > 407 | > 407 | – |
| CCP(=S)(CC)CCl | > 200 | > 200 | – |
| CCNCCCCNCCCCNCCCCNCCCCNCC | > 2190 | 12.3 | – |
| CC(=O)OC1CN(OCC2OC(OC(C)=O)C(OC(C)=O)C(OC(C)=O)C2OC(C)=O)CC(OC(C)=O)C1OC(C)=O (configuration not stated) | > 200 | > 200 | – |
| COC(=O)C1=NN2c3ccccc3C(=O)OCCC2C1 (configuration not stated) | > 200 | > 200 | – |
| O=C(O)c1ccc(CSc2ccc([N+](=O)[O-])cc2)cc1 | > 89.1 | 72.4 | – |
| CC(=O)OC(C(=O)[O][Ge]([CH3])([CH3])[CH3])c1ccccc1 (configuration not stated) | – | – | inactive |
| Cc1ccc(S(=O)(=O)N2CC2CCCCC=O)cc1 (configuration not stated) | > 200 | 31.6 | – |
| O=C1CCC2(O)c3ccccc3C2Cc2ccccc21 (configuration not stated) | > 200 | > 200 | – |
| COC(CC[P+](c1ccccc1)(c1ccccc1)c1ccccc1)(C(=O)c1ccccc1)c1ccccc1 (configuration not stated) | > 20 | 0.447 | – |

| Structure (SMILES) | EC50 [µM] | IC50 [µM] | outcome |
| --- | --- | --- | --- |
| Nc1nc(NNc2cccc(F)c2)cc(=O)[nH]1 | > 200 | 16.6 | – |
| O/N=C/C1C(OCc2ccccc2)C(OCc2ccccc2)C(OCc2ccccc2)CN1Cc1ccccc1 (configuration not stated) | – | – | inactive |
| COc1ccc(C2Nc3cc(Cl)ccc3NC3=C2C(=O)CC(C)(C)C3)cc1 (configuration not stated) | > 200 | 83.2 | – |
| CC12CC3CC(C)(C1)CC(N=[N+]=[N-])(C3)C2 | > 91.2 | > 91.2 | – |
| c1ccc2c(c1)CCN1CCc3ccccc3C1C2 (configuration not stated) | > 200 | 36.3 | – |
| O=C(O)CCCCCCC[C@@H]1S[C@H]1CCCCCCO | – | – | inactive |
| COc1cc(C2c3cc4c(cc3OC(N3CCCCC3)C2C)OCO4)cc(OC)c1OC (configuration not stated) | > 50.1 | 0.398 | – |
| CC1CN1c1c(C(=O)/C=C/c2ccccc2)c(-c2ccccc2)nn(C)c1=O (configuration not stated) | > 67.6 | 12.6 | – |
| CCN(CC)CCNC(=O)C(O)(c1ccccc1)c1ccccc1 | > 200 | > 200 | – |
| CCOP(=O)(CC1CC(O)(CNc2cc(Cl)nc(N)n2)C1)OCC (configuration not stated) | > 200 | > 200 | – |
| CCOC(=O)CC1(N)CC2c3ccccc3OC(=O)C2C(=O)N1 (configuration not stated) | > 200 | > 200 | – |
| Clc1cc2nnn(C3CCCCO3)c2cc1Cl (configuration not stated) | > 200 | > 200 | – |
| COc1cc(C2c3cc4c(c(O)c3C[C@H]3COC(=O)[C@@H]23)OCO4)cc(OC)c1O (some centres not stated) | > 200 | 0.0631 | – |
| COC(=O)c1ccccc1SSCCN | > 200 | 19.1 | – |
| O=c1cc(-c2ccc(O)c(O)c2)oc2cc(OC3OC(CO)C(O)C(O)C3O)cc(O)c12 (configuration not stated) | > 200 | 15.5 | – |
| CCOC(=O)/C(C#N)=C/c1ccc(OC)cc1 | > 155 | > 155 | – |
| O=C(/C=C/c1cccc2ccccc12)c1ccccc1Cl | > 12.9 | 11 | – |
| CCOc1ccccc1N=Nc1ccc2oc(=O)c(C(=O)Nc3cccc(C)c3)cc2c1 | > 43.7 | > 43.7 | – |
| CN1CCCC(CC2c3ccccc3Sc3ccccc32)C1 (configuration not stated) | > 200 | 12.3 | – |
| CC(C)=Nn1cnc2c1NC(C)(C)N=C2C(N)=O | > 200 | > 200 | – |
| O=c1[nH]n(Cc2ccccc2)c2ccc([N+](=O)[O-])cc12 | > 200 | 25.7 | – |
| O=C(/C=C/c1c(O)ccc2ccccc12)c1cccc2ccccc12 | > 162 | 112 | – |
